Drawing on PubChem BioAssay (NCI), this text covers GI50 and TGI for ten molecules.

Some test systems named below: HL-60(TB) leukemia; CAKI-1 renal; SK-MEL-2 melanoma; NCI-H522 lung; EKVX NSCLC; U251 CNS; SF-295 CNS; RPMI-8226 leukemia; UACC-62 melanoma; HS 578T breast.
Holding throughout (assay): growth of human tumour cells (NCI), 48 h

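Five compound concentrations were applied to cells in 96-well plates for 48 hours; endpoints were derived by simple linear interpolation of the resulting dose-response curve. The concentration for 50% growth inhibition is given as GI50. Definition used: TGI = concentration required for complete inhibition of growth.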

In the case of `Nc1ccc2c(c1)c(N)nn2C(=O)Nc1ccc(Cc2ccccc2)cc1`, the GI50 was 3.46 µM in the experiment with HL-60(TB) leukemia; 4300 nM in the experiment with CAKI-1 renal; 26.1 µM with SK-MEL-2 melanoma; 14700 nM in the experiment with NCI-H522 lung; 14 µM in the experiment with EKVX NSCLC; 6.53 µM with U251 CNS. Moreover, the GI50 with SF-295 CNS is 3.96 µM; in the experiment on RPMI-8226 leukemia, 5.14 µM; in the experiment on UACC-62 melanoma, 2900 nM; in the experiment on HS 578T breast, 17.3 µM. Also, the TGI was found to be 17200 nM in the experiment on HL-60(TB) leukemia; 26.8 µM in the experiment with CAKI-1 renal; 48.5 µM in the experiment on SK-MEL-2 melanoma; 39.6 µM in the experiment on NCI-H522 lung; 36.7 µM with EKVX NSCLC; 20.9 µM with U251 CNS. In addition, the TGI in the experiment with SF-295 CNS is 15.1 µM; in the experiment on RPMI-8226 leukemia it was 35 µM; in the experiment on UACC-62 melanoma, 12.6 µM; with HS 578T breast, 43 µM.
Consider `O=C(c1ccc(Cl)cc1)C1OC12C(=O)Nc1ccccc12` (configuration not stated), for which the TGI with HL-60(TB) leukemia worked out at 1580 nM; in the experiment on CAKI-1 renal, 20.6 µM; in the experiment on SK-MEL-2 melanoma it was 22.3 µM; in the experiment with NCI-H522 lung it was 3.97 µM; in the experiment on EKVX NSCLC, 33.4 µM; in the experiment with U251 CNS, 32 µM. Also, the TGI with SF-295 CNS turned out to be 33.7 µM; in the experiment with RPMI-8226 leukemia, 10.2 µM; in the experiment on UACC-62 melanoma, 32.3 µM; in the experiment on HS 578T breast, 44.6 µM.
For the molecule `CCOc1cc(-c2ccc[nH]2)[nH]c1/C=C1\N=C(C)C(C(=O)OC)=C1C`, the GI50 in the experiment on HL-60(TB) leukemia is 0.0235 µM; in the experiment with CAKI-1 renal, 33.1 nM; in the experiment on SK-MEL-2 melanoma, 0.0256 µM; in the experiment on NCI-H522 lung, 56.1 nM; in the experiment with EKVX NSCLC it was 0.235 µM; with U251 CNS, 0.0319 µM. Further, the results for the GI50 in the experiment with RPMI-8226 leukemia, with UACC-62 melanoma and in the experiment with HS 578T breast were 0.0216 µM, 24 nM and 0.0475 µM, respectively. The TGI worked out at 1690 nM in the experiment on HL-60(TB) leukemia; 0.194 µM in the experiment on CAKI-1 renal; 0.0893 µM with SK-MEL-2 melanoma; 0.318 µM in the experiment on NCI-H522 lung; 2.3 µM with EKVX NSCLC; 0.814 µM in the experiment with U251 CNS. In addition, the TGI in the experiment on RPMI-8226 leukemia worked out at 0.0898 µM; in the experiment with UACC-62 melanoma, 0.0581 µM; in the experiment on HS 578T breast it was 0.58 µM.
Regarding `Cc1nc(N)nc2ccccc12`, the TGI with HL-60(TB) leukemia was above 100000 nM; with CAKI-1 renal, above 100 µM; in the experiment with SK-MEL-2 melanoma it was above 100 µM; in the experiment on NCI-H522 lung, above 100 µM; in the experiment on EKVX NSCLC, above 100 µM; in the experiment with U251 CNS, above 100 µM. Further, the TGI in the experiment on SF-295 CNS, in the experiment on RPMI-8226 leukemia, in the experiment on UACC-62 melanoma and in the experiment on HS 578T breast was above 100 µM throughout.
As for `N#CC1C=Cc2ccccc2N1C(=O)Oc1ccccc1` (configuration not stated), the TGI was 48600 nM in the experiment with HL-60(TB) leukemia; above 100 µM in the experiment on CAKI-1 renal; 64.3 µM in the experiment on SK-MEL-2 melanoma; above 100 µM in the experiment with NCI-H522 lung; above 100 µM in the experiment with EKVX NSCLC; above 100 µM in the experiment with U251 CNS. Further, the results for the TGI in the experiment with RPMI-8226 leukemia, in the experiment on UACC-62 melanoma and with HS 578T breast were 61.3 µM, above 100 µM and above 100 µM, respectively.
With `CC1OC(OC2CCC3(C=O)C4CCC5(C)C(C6=CC(=O)OC6)CCC5(O)C4CCC3(O)C2)C(O)C(O)C1O` (configuration not stated), the TGI came to 0.107 nM with HL-60(TB) leukemia; 4.15e-05 µM in the experiment with CAKI-1 renal; 0.000326 µM in the experiment on SK-MEL-2 melanoma; 4.41e-05 µM in the experiment with NCI-H522 lung; 3.38e-05 µM with EKVX NSCLC; 0.000156 µM with U251 CNS. Besides, the TGI with SF-295 CNS was 6.69e-05 µM; with RPMI-8226 leukemia it was 0.000124 µM; in the experiment with UACC-62 melanoma, 0.000127 µM; in the experiment with HS 578T breast, above 100 µM.
With `Cc1cc(Cl)ccc1NS(=O)(=O)c1ccc(-c2cnc(C3CC3)o2)cc1`, the GI50 is 0.202 µM in the experiment with HL-60(TB) leukemia; 127 nM with CAKI-1 renal; 0.677 µM with SK-MEL-2 melanoma; 251 nM with NCI-H522 lung; 0.411 µM with EKVX NSCLC; 0.384 µM with U251 CNS. In addition, the GI50 with SF-295 CNS was 0.0799 µM; in the experiment with RPMI-8226 leukemia it was 0.343 µM; in the experiment with UACC-62 melanoma, 169 nM; with HS 578T breast, 0.275 µM. Further, the TGI worked out at 2890 nM in the experiment on HL-60(TB) leukemia; 17.6 µM in the experiment on CAKI-1 renal; 22 µM with SK-MEL-2 melanoma; 4.34 µM in the experiment with NCI-H522 lung; 28.5 µM with EKVX NSCLC; 15.7 µM in the experiment on U251 CNS. In addition, the TGI with SF-295 CNS amounted to 2.02 µM; with RPMI-8226 leukemia it was 23.1 µM; in the experiment with UACC-62 melanoma it was 17.1 µM; in the experiment on HS 578T breast it was 22.2 µM.
As for `CC1(C)OC2C(COS(N)(=O)=O)SC(n3cnc4cncnc43)C2O1` (configuration not stated), the GI50 is above 100 µM in the experiment on HL-60(TB) leukemia; above 100000 nM with CAKI-1 renal; above 100 µM in the experiment with SK-MEL-2 melanoma; above 100000 nM in the experiment with NCI-H522 lung; above 100 µM in the experiment on EKVX NSCLC; above 100 µM in the experiment with U251 CNS. Moreover, the GI50 was above 100 µM with SF-295 CNS, above 100 µM in the experiment on RPMI-8226 leukemia, above 100000 nM in the experiment on UACC-62 melanoma and above 100 µM in the experiment with HS 578T breast. Also, the TGI is above 100000 nM with HL-60(TB) leukemia; above 100 µM with CAKI-1 renal; above 100 µM with SK-MEL-2 melanoma; above 100 µM in the experiment with NCI-H522 lung; above 100 µM in the experiment on EKVX NSCLC; above 100 µM in the experiment on U251 CNS. Also, the TGI in the experiment with SF-295 CNS, with RPMI-8226 leukemia, in the experiment on UACC-62 melanoma and in the experiment with HS 578T breast was above 100 µM each time.
As to `COc1ccc(CCc2cc(OC)c(OC)c(OC)c2)cc1`, the TGI with HL-60(TB) leukemia was 296 nM; in the experiment on CAKI-1 renal, 20.4 µM; in the experiment with SK-MEL-2 melanoma, 24.2 µM; in the experiment on NCI-H522 lung, 0.115 µM; with EKVX NSCLC, 70 µM; with U251 CNS, 2.73 µM. Also, the TGI with SF-295 CNS was 1.46 µM; in the experiment on RPMI-8226 leukemia, 17.1 µM; with UACC-62 melanoma it was above 100 µM; with HS 578T breast it was above 100 µM.
`COc1cc([N+](=O)[O-])c2ncccc2c1[N+](=O)[O-]`: the GI50 was 3.39 µM in the experiment on HL-60(TB) leukemia; 1650 nM with CAKI-1 renal; 4.17 µM with SK-MEL-2 melanoma; 1130 nM in the experiment with NCI-H522 lung; 15.4 µM in the experiment with EKVX NSCLC; 4.45 µM in the experiment with U251 CNS. The GI50 in the experiment with SF-295 CNS was 4.51 µM; in the experiment with RPMI-8226 leukemia, 6.15 µM; with UACC-62 melanoma, 12000 nM; in the experiment on HS 578T breast, 3.87 µM. Besides, the TGI in the experiment with HL-60(TB) leukemia was above 100000 nM; with CAKI-1 renal, 4 µM; with SK-MEL-2 melanoma, 12.3 µM; in the experiment on NCI-H522 lung it was 2.62 µM; with EKVX NSCLC, 29.4 µM; with U251 CNS, 16.6 µM. The TGI in the experiment on SF-295 CNS came to 14.3 µM; in the experiment with RPMI-8226 leukemia, 26.5 µM; with UACC-62 melanoma, 25.1 µM; with HS 578T breast, 29.4 µM.
